# Experimental data reported in PubChem BioAssay AID1159605 (The Scripps Research Institute Molecular Screening Center, 2016).
# Calls of active or inactive are those of the source.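 The calls were made as follows: active = IC50 of 10 µM or lower; inactive = IC50 above 10 µM.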
# Biological target: Mitogen-activated protein kinase kinase kinase 5 (Homo sapiens) (UniProt Q99683)
# Assay: ASK1 kinase inhibitor potency, dose response, biochemical, AlphaScreen, MKK6 phosphorylation (AID 1159605);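 also: ASK1 phosphorylation of MKK6 substrate detected with anti-phospho-MKK6 antibody beads; inhibitors lower the luminescent signal by blocking MKK6 phosphorylation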
# Details: AlphaScreen luminescence
# Chain of Mitogen-activated protein kinase kinase kinase 5 (Homo sapiens) (Q99683 whole entry, looked up): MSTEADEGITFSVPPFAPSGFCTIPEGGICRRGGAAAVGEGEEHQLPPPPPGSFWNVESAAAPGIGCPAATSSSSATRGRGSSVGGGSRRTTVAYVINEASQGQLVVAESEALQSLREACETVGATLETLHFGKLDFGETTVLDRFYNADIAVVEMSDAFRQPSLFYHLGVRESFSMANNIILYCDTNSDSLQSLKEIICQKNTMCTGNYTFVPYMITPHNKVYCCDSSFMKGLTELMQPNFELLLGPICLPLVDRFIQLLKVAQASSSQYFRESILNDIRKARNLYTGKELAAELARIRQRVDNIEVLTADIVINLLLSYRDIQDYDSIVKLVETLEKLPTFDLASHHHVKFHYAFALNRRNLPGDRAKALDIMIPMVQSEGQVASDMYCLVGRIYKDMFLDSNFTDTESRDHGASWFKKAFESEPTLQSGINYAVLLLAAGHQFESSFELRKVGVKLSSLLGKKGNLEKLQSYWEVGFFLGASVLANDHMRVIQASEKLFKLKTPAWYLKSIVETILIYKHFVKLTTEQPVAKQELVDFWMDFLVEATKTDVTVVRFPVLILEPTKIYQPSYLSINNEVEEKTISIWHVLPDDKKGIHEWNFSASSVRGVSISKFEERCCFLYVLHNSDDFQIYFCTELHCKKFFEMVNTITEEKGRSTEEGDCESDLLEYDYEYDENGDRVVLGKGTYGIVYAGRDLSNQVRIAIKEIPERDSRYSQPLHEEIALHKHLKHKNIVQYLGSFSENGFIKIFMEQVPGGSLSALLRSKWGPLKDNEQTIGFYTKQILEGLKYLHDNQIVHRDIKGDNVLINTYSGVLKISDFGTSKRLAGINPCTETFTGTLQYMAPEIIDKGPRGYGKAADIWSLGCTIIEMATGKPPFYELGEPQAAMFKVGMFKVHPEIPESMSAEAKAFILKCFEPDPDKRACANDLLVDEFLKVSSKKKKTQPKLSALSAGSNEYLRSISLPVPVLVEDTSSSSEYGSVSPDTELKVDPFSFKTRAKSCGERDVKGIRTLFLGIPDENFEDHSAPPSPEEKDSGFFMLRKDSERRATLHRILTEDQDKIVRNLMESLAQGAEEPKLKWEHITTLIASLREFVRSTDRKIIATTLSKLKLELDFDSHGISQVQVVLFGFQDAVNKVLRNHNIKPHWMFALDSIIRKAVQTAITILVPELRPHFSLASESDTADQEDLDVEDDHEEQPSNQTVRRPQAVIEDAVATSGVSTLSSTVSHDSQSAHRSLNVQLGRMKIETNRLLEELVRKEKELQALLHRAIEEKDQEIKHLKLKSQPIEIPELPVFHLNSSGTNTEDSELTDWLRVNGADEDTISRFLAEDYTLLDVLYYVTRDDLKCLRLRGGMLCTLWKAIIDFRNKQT
row,SMILES,IC50
1,NC(=O)c1ccc(-c2nc(NCc3cccc(C(F)(F)F)c3)c3ncn(-c4ccccc4)c3n2)cc1,> 18 µM (inactive)
2,CCN(CC)c1nc(Nc2ccc(N3CCOCC3)cc2)nc(N2CCN(Cc3ccc4c(c3)OCO4)CC2)n1,8.17 µM
3,Cc1cc(NCc2cccc(C(F)(F)F)c2)nc(Nc2ccc(N3CCOCC3)cc2)n1,6.57 µM
4,Cc1c[nH]c2ncnc(-c3ccc(NC(=O)Nc4ccccc4)cc3)c12,> 19.2 µM (inactive)
5,FC(F)(F)c1cccc(CNc2nc(Nc3ccc(N4CCOCC4)cc3)nc3c2ncn3-c2ccsc2)c1,8.62 µM
6,Cc1nc(C)n(-c2ccc(Nc3nccc(-c4cc(F)cc(-c5ncco5)c4)n3)cc2)n1,> 19.2 µM (inactive)
7,c1ccc(CN2CCC(Nc3nc(Nc4ccc(N5CCOCC5)cc4)nc4c3ncn4C3CCCCC3)CC2)cc1,7.91 µM
8,CN(C)c1cccc(Nc2nc(NCCc3ccc(O)cc3)c3ncn(Cc4ccc(C(F)(F)F)cc4)c3n2)c1,inactive
9,COc1cc(Nc2nc(-c3c(C)noc3C)nc3c2ncn3Cc2ccc(C(F)(F)F)cc2)cc(OC)c1OC,> 27.5 µM (inactive)
10,COc1cc2nc(Nc3ccc(N4CCOCC4)cc3)nc(NCCOc3ccccc3)c2cc1OC,inactive
11,Nc1cccc(-c2nc3ncnc(Nc4ccc(N5CCOCC5)cc4)c3[nH]2)c1,> 18.2 µM (inactive)
12,O=C(Nc1ccc(-c2ncnc3[nH]ccc23)cc1)C1COc2ccccc2O1 (stereo unspecified),> 19.2 µM (inactive)
13,c1cc(-c2ccc3[nH]ncc3c2)nc(Nc2ccc(N3CCOCC3)cc2)n1,> 19.2 µM (inactive)
14,Cc1cnc(Nc2ccc(N3CCOCC3)cc2)nc1NCc1cccc(C(F)(F)F)c1,8.86 µM
15,CC(C)n1cnc2c(NCc3cccc(C(F)(F)F)c3)nc(Nc3ccc(N4CCOCC4)cc3)nc21,5.42 µM
16,FC(F)(F)c1ccc(Cn2cnc3c(NCc4ccccc4)nc(Nc4ccccc4)nc32)cc1,> 20.1 µM (inactive)
17,O=C(NC1CC1)c1ccc(-c2nc(NCc3cccc(C(F)(F)F)c3)c3ncn(-c4ccccc4)c3n2)cc1,> 19.9 µM (inactive)
18,Cc1cnc(-c2ccc(C(N)=O)cc2)nc1Nc1ccc(N2CCOCC2)cc1,inactive
19,FC(F)(F)c1ccc(Cn2cnc3c(Nc4ccc(N5CCOCC5)cc4)nc(NC4CCN(Cc5ccccc5)CC4)nc32)cc1,inactive
20,COc1cc2nc(Nc3ccccc3)nc(Nc3ccc(N4CCOCC4)cc3)c2cc1OC,> 24 µM (inactive)
21,c1cc(Nc2ccc3c(c2)OCO3)nc(Nc2ccc(N3CCOCC3)cc2)n1,inactive
22,COc1cc2nc(Nc3cccc(N(C)C)c3)nc(Nc3ccccc3)c2cc1OC,inactive

row,SMILES,IC50
1,Cc1ccc(-c2ncn(-c3ccc(Nc4nccc(-c5cncc6ccccc56)n4)cc3)n2)cn1,> 19.2 µM (inactive)
2,CC(=O)c1cccc(-c2nc(NCc3ccccc3)c3ncn(Cc4ccc(C(F)(F)F)cc4)c3n2)c1,> 19.2 µM (inactive)
3,CC(C)n1cnc2c(Nc3ccccc3)nc(Nc3ccc(N4CCOCC4)cc3)nc21,inactive
4,CN(C)c1cccc(Nc2nccc(NCc3cccc(C(F)(F)F)c3)n2)c1,> 16.5 µM (inactive)
5,CC(C)n1cnc2c(NC3CCN(Cc4ccccc4)CC3)nc(Nc3cccc(N(C)C)c3)nc21,> 21.5 µM (inactive)
6,FC(F)(F)c1ccc(Cn2cnc3c(Nc4ccc5c(c4)OCO5)nc(Nc4ccc(N5CCOCC5)cc4)nc32)cc1,5.36 µM
7,c1ccc2c(-c3nccc(Nc4ccc(N5CCOCC5)cc4)n3)csc2c1,> 21.8 µM (inactive)
8,c1cc(-n2cnc3c(Nc4ccc5c(c4)OCO5)nc(Nc4ccc(N5CCOCC5)cc4)nc32)cs1,5.72 µM
9,COc1ccc(CCNc2nc(Nc3ccc(N4CCOCC4)cc3)nc3c2ncn3-c2ccsc2)cc1,9.53 µM
10,Nc1nc(Nc2ccc(N3CCOCC3)cc2)cc(-c2ccc3[nH]ccc3c2)n1,8.21 µM
11,Cc1cc(NCCOc2ccccc2)nc(Nc2cccc(N(C)C)c2)n1,6.99 µM
12,OC1CCN(c2ccc(Nc3nccc(-c4cc(F)cc(N5CCN(C6CC6)CC5)c4)n3)cc2)CC1,> 19.2 µM (inactive)
13,Cc1ccc(-c2cccc3cnc(Nc4ccc(-n5cnc(C)n5)cc4)nc23)cn1,> 19.2 µM (inactive)
14,COc1cc2nc(Nc3ccc4ncccc4c3)nc(Nc3ccc(NC(C)=O)cc3)c2cc1OC,> 20 µM (inactive)
15,Nc1nc(Nc2ccc(N3CCOCC3)cc2)cc(Nc2ccc3c(c2)OCO3)n1,> 16.8 µM (inactive)
16,c1ccc(OCCNc2nc(Nc3ccc(N4CCOCC4)cc3)nc3c2ncn3C2CCCCC2)cc1,5.66 µM
17,COc1ccc(CCNc2nc(Nc3cccc(N(C)C)c3)nc3cc(OC)c(OC)cc23)cc1,inactive
18,Cc1cnc(-c2cccc(N)c2)nc1Nc1ccc(N2CCOCC2)cc1,inactive
19,COc1cc2nc(NCc3ccc4c(c3)OCO4)nc(Nc3ccc(N4CCOCC4)cc3)c2cc1OC,> 19.9 µM (inactive)
20,c1ccc(CCn2nc(-c3ccnc(Nc4ccc(N5CCOCC5)cc4)c3)cc2Nc2ccccc2)cc1,> 19.2 µM (inactive)
21,COc1cc2nc(Nc3cccc(N(C)C)c3)nc(Nc3ccc4c(c3)OCO4)c2cc1OC,6.21 µM
22,CC(C)n1cnc2c(NCc3cccc(C(F)(F)F)c3)nc(N3CCN(Cc4ccc5c(c4)OCO5)CC3)nc21,8.82 µM

row,SMILES,IC50
1,CN(C)c1cccc(Nc2cc(Nc3ccccc3)ncn2)c1,> 22.2 µM (inactive)
2,O=C(Cc1cn(-c2ccc(Nc3nccc4ccccc34)nn2)c2ccccc12)Nc1ccc2c(c1)OCO2,> 21.6 µM (inactive)
3,CC(C)n1cnc2c(NC3CC3)nc(N3CCN(c4ccccn4)CC3)nc21,inactive
4,CC(C)n1cnc2c(Nc3ccc(N4CCOCC4)cc3)nc(Nc3ccc(-n4ccnc4)cc3)nc21,> 19.1 µM (inactive)
5,FC(F)(F)c1ccc(Cn2cnc3c(Nc4ccc5c(c4)OCO5)nc(N4CCN(c5ccccn5)CC4)nc32)cc1,> 20 µM (inactive)
6,COc1cc2nc(Nc3ccc(-n4ccnc4)cc3)nc(Nc3ccc4c(c3)OCO4)c2cc1OC,> 20 µM (inactive)
7,COc1ccc2c(c1)CC(C(=O)Nc1ccc(-c3cn[nH]c3)cc1OCCOCc1ccccc1)CO2 (stereo unspecified),> 19.2 µM (inactive)
8,COc1cc2nc(Nc3cccc(N(C)C)c3)nc(Nc3ccc(NC(C)=O)cc3)c2cc1OC,7.74 µM
9,Cc1cc(Nc2ccc(N3CCOCC3)cc2)nc(N2CCN(Cc3ccc4c(c3)OCO4)CC2)n1,inactive
10,Oc1ccc(CCNc2nc(NC3CCN(Cc4ccccc4)CC3)nc3c2ncn3Cc2ccc(C(F)(F)F)cc2)cc1,inactive
11,FC(F)(F)c1cccc(CNc2nc(N3CCN(Cc4ccc5c(c4)OCO5)CC3)nc3c2ncn3-c2ccccc2)c1,> 20.1 µM (inactive)
12,COc1ccc(CCNc2cc(C)nc(Nc3cccc(N(C)C)c3)n2)cc1,6.67 µM
13,c1ccc(-n2cnc3c(Nc4ccc(N5CCOCC5)cc4)nc(Nc4cccnc4)nc32)cc1,> 15.9 µM (inactive)
14,COc1cc(Nc2nc(-c3ccc(C(N)=O)cc3)ncc2C)cc(OC)c1OC,inactive
15,CC(C)CNC(=O)c1ccc2c(c1)CC(c1nc3ncc(-c4ccnc(N)n4)cc3[nH]1)CO2 (stereo unspecified),> 19.2 µM (inactive)
16,COc1cc2nc(Nc3cccc(N(C)C)c3)nc(Nc3cc(OC)c(OC)c(OC)c3)c2cc1OC,> 19 µM (inactive)
17,c1cnc2ccc(Nc3nc(Nc4ccc(N5CCOCC5)cc4)c4[nH]cnc4n3)cc2c1,inactive
18,CN(C)c1cccc(Nc2nccc(Nc3ccc4c(c3)OCO4)n2)c1,inactive
19,c1ccc2c(c1)CCN(c1nccc(Nc3ccc(N4CCOCC4)cc3)n1)C2,inactive
20,COc1ccc(CCNC(=O)c2ccnc(Nc3cccc(N(C)C)c3)c2)cc1,> 20 µM (inactive)
21,c1cc(-n2cnc3c(NC4CC4)nc(Nc4ccc(N5CCOCC5)cc4)nc32)cs1,inactive
22,c1ccc2c(c1)OCC(c1nc(N3CCOCC3)c3cc(-c4cn[nH]c4)ccc3n1)O2 (stereo unspecified),> 19.2 µM (inactive)

row,SMILES,IC50
1,c1ccc(CN2CCC(Nc3nc(Nc4ccc(N5CCOCC5)cc4)nc4c3ncn4-c3ccsc3)CC2)cc1,9.41 µM
2,Cc1cnc(-c2csc3ccccc23)nc1Nc1ccc(N2CCOCC2)cc1,> 20.1 µM (inactive)
3,CC(C)n1cnc2c(Nc3ccc(N4CCOCC4)cc3)nc(N3CCN(c4ccccn4)CC3)nc21,inactive
4,c1ccc(N2CCN(c3nc(Nc4ccc(N5CCOCC5)cc4)c4ncn(-c5ccsc5)c4n3)CC2)nc1,inactive
5,FC(F)(F)c1ccc(Cn2cnc3c(NCc4cccc(C(F)(F)F)c4)nc(Nc4ccc5ncccc5c4)nc32)cc1,> 19.8 µM (inactive)
6,Cc1[nH]ncc1-c1ccc2nc(NC(=O)C3COc4ccc(F)cc4C3)sc2c1 (stereo unspecified),> 19.2 µM (inactive)
7,CN(C)c1cccc(Nc2ccc(-n3cc(CC(=O)Nc4ccc(N5CCOCC5)cc4)c4ccccc43)nn2)c1,> 20.1 µM (inactive)
8,COc1cc(Nc2nc(N3CCc4ccccc4C3)nc3c2ncn3C(C)C)cc(OC)c1OC,> 20.1 µM (inactive)
9,COc1c(-c2cnn(C)c2)ccc2cnc(Nc3ccc(-n4cnc(N5CCOCC5)n4)cc3)nc12,> 19.2 µM (inactive)
10,c1ccc(N2CCN(c3nc(Nc4ccc(N5CCOCC5)cc4)c4ncn(C5CCCCC5)c4n3)CC2)nc1,> 22.8 µM (inactive)
11,FC(F)(F)c1ccc(Cn2cnc3c(Nc4ccc(N5CCOCC5)cc4)nc(N4CCN(c5ccccn5)CC4)nc32)cc1,> 20 µM (inactive)
12,COc1ccc2c(c1)CC(C(=O)Nc1ccc(-c3cn[nH]c3)cc1OCCN(Cc1ccccc1)Cc1ccccc1)CO2 (stereo unspecified),> 19.2 µM (inactive)
13,c1ccc(OCCNc2nc(Nc3ccc(-n4ccnc4)cc3)nc3c2ncn3C2CCCCC2)cc1,inactive
14,c1nc(Nc2ccc(N3CCOCC3)cc2)c2[nH]c(N3CCN(Cc4ccc5c(c4)OCO5)CC3)nc2n1,> 13.8 µM (inactive)
15,c1cc(-n2cnc3c(Nc4ccc(N5CCOCC5)cc4)nc(NCc4ccc5c(c4)OCO5)nc32)cs1,> 19.9 µM (inactive)
16,COc1cc(Nc2ccnc(Nc3cccc(N(C)C)c3)n2)cc(OC)c1OC,6.84 µM
17,Cc1cc(NCCc2ccc(O)cc2)nc(N2CCN(Cc3ccc4c(c3)OCO4)CC2)n1,> 18.1 µM (inactive)
18,O=c1[nH]cccc1-c1ccc(Nc2nccc(-c3ccc4nc(C5CC5)[nH]c(=O)c4c3)n2)cc1,> 19.2 µM (inactive)
19,NC(=O)c1cc2ccccc2cc1Nc1ccnc(Nc2ccc(N3CCOCC3)cc2)c1,> 19.2 µM (inactive)
20,CN(C)c1cccc(Nc2nc(NCCc3ccc(O)cc3)c3ncn(-c4ccccc4)c3n2)c1,> 20 µM (inactive)
